According to BindingDB's records for doi:10.1016/j.bioorg.2013.01.001 (University of Wisconsin-Madison, 2013):
pKi: −log10 of the molar value.

Target: Vitamin D3 receptor (Rattus norvegicus) (UniProt P13053)
Assay: In vitro study, VDR binding assay were performed as previously described.

Vitamin D3 receptor (Rattus norvegicus), sequence (P13053 whole entry, looked up): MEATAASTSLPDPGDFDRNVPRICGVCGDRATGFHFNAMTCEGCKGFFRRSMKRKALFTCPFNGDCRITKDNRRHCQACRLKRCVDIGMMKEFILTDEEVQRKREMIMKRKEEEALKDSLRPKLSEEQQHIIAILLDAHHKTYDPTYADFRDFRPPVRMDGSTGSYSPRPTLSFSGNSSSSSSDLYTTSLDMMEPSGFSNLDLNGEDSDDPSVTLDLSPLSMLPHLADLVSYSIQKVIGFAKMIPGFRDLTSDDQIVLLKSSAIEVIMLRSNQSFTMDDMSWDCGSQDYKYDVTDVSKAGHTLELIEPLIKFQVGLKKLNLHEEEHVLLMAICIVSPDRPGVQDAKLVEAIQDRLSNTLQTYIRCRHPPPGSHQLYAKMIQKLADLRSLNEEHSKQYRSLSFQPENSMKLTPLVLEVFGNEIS

Point of comparison: `C=C1[C@H](O)CC(=C/C=C2\CCC[C@@]3(C)C2CCC3[C@@H](C)CCCCO)C[C@H]1O` (some centres undefined) [Vitamin D analog, 7], pKi 9.52. Against it:
- C=C1[C@H](O)CC(=C/C=C2\CCC[C@@]3(C)C2CCC3[C@H](C)CCCC)C[C@H]1O (some centres undefined) [Vitamin D analog, 8] — the same, 9.52
- C=C1[C@H](O)CC(=C/C=C2\CCC[C@@]3(C)C2CCC3[C@H](C)CCCCO)C[C@H]1O (some centres undefined) [Vitamin D analog, 6] — within 0.2 log units, 9.70
- C=C1[C@H](O)CC(=C/C=C2\CCC[C@@]3(C)C2CCC3[C@@H](C)CCCC)C[C@H]1O (some centres undefined) [Vitamin D analog, 9] — the same, 9.52
